Key:
[1] = system: donor CD4+ T cells; test: Acute graft versus host model: Treg phenotype of alloactivated donor CD4+ T cells; type: in vivo, mouse; details: B6D2F1 hosts, day 2
Experimental: FIGS. 14a-14i show AHRL1 induces an AhR-dependent Treg phenotype by a mechanism that is mediated by the AhR in donor CD4+ T cells. The AhR-induced Tregs were identified as the CD4+CD25+CTLA-4+CD62L^low population of T cells. To determine if AHRL1 induced changes in donor CD4+ T cells, AHRL1 was compared with TCDD and the vehicle. On day 0, B6D2F1 host mice in groups of 5 were injected with CFSE-labeled C57BL/6 (H-2^b/b) T cells and given 15 mg/kg of AHRL1, 15 μg/kg of TCDD, or vehicle by i.p. injection. At 24 hours, an additional dose of 7 mg/kg of AHRL1 or vehicle was given. Mice that were treated with TCDD at the time of donor cell transfer were used as positive controls. Splenocytes were isolated on day 2 for phenotypic analysis of the alloresponsive (CFSE-diluted) donor CD4+ T cells. Splenocytes were harvested from the host mice and the CD4+ T cells were identified by flow cytometry.
On day 0, B6D2F1 host mice in groups of 5 were injected with donor T cells obtained from AhR^+/+ or AhR-deficient (AhR^−/−) C57BL/6 mice. Host mice were treated with 2 mg/kg of AHRL1 or vehicle immediately following donor cell transfer and again at 24 hours. […] Thus, the AhR in the CD4+ T cell is the primary target driving the AhR-Treg phenotype.
On day 0, B6D2F1 host mice in groups of 3-5 were injected with C57BL/6 T cells. Mice were immediately treated with 0 mg/kg, 0.4 mg/kg, 2 mg/kg, or 10 mg/kg of AHRL1 and again on day 1. On day 2, expression of markers associated with the AhR-Treg phenotype increased as the dose of AHRL1 increased. Further, dosing generally correlated with degree of activation of AhR as reflected by CYP1A1, CYP1B1, and AHRR expression in lymph nodes from the same mice. The asterisk (*) indicates a p-value of 0.05 relative to vehicle treatment.
FIGS. 16c and 16d show expression of phenotypic markers, CD25+ICOS+CD62L^low and CD25+CTLA-4+, associated with AhR-Tregs in mice treated with AHRL1. Host mice were treated with 10 mg/kg of AHRL1, 11-Cl-BBQ analog, or vehicle on day 0 and day 1 following donor cell transfer. On day 2, the alloactivated CD4+ donor T cells were identified based on CFSE dilution. The percentage of donor cells in each group expressing the Treg markers were derived from flow histograms. The data represents mean±SEM of 5 mice per treatment. […] Analog 1 is statistically different from AHRL1 and analog 4 (p-value=0.05). […], analog 1, and analog 4 are shown to be AhR ligands that are capable of inducing Tregs in vivo. Accordingly, analogs 1 and 4 are expected to have a similar therapeutic effect in a subject as AHRL1 by suppressing an autoimmune response. Additionally, analog 6, analog 7, and other analogs of 11-Cl-BBQ, that are found to be active AhR ligands using the disclosed screening method, are expected to induce Tregs and suppress CTL to provide treatment and/or prevention of immune-mediated diseases.

[2] = system: CYP1A1; test: CYP1A1 mRNA induction in Hepa-1 cells; details: 1 nM
Experimental: The levels of CYP1A1 expression were determined by measuring CYP1A1 messenger ribonucleic acid (mRNA) levels.

[3] = target: T1, AhR (Mus musculus, UniProt P30561); test: Competitive inhibition of [3H] 3-MC binding to AhR
T1 sequence (P30561 10-848): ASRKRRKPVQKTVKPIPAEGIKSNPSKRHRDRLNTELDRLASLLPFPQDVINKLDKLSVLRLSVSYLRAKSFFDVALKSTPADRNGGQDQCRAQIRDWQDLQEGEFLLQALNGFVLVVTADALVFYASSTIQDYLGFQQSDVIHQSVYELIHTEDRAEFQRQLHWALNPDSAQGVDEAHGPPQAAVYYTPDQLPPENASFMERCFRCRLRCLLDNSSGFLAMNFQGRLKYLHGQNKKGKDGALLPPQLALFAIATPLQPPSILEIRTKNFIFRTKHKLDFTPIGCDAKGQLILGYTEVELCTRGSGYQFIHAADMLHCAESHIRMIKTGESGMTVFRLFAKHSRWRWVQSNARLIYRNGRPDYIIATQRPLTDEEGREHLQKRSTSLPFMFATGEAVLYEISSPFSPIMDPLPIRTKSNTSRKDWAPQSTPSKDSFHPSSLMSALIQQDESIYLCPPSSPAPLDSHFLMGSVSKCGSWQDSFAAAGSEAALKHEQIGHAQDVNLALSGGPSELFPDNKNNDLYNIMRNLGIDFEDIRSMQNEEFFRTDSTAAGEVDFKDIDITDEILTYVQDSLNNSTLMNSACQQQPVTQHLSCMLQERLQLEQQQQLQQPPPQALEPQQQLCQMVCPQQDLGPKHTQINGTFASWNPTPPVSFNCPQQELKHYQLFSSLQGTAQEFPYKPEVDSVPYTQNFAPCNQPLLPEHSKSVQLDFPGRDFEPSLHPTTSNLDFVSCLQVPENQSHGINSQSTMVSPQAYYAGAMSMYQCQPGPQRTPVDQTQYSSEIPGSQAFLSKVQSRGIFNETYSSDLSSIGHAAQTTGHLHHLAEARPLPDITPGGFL
Source text: 3-MC binding to AhR. […] 3-methylcholanthrene (3-MC) to AhR.

Clc1cc2c(cc1Cl)Oc1cc(Cl)c(Cl)cc1O2 [TCDD, 2,3,7,8-tetrachlorodibenzo-p-dioxin]
total number of alloactivated CD4+CD25+ T cells co-expressing CTLA-4+, ICOS, low CD62L [1]: increased | expression of ICOS on alloactivated donor CD4+ T cells ([1]; AHRL1 15 mg/kg then 7 mg/kg, TCDD 15 μg/kg i.p.): significantly increased | CYP1A1 mRNA induction [2]: comparable level of induction | IC50 [3]: 4.7 nM

Source: patent publication US10308649B2, “Compounds and methods to suppress autoimmune response” (Oregon State University, priority 2014, dated 2019)
